In patent US4321376A, “Neplanocin-B and -F” (Toyo Jozo Kabushiki Kaisha, priority 1979, dated 1982):

Tests used:
Nature (basicity) = type: physicochemical
Anti-depressant activity = details: no test details given
Solubility = type: physicochemical; details: for Solubility: insoluble in: solvents in which insoluble; for Solubility: soluble in: solvents in which soluble
mice = experiment: Acute toxicity, intraperitoneal administration to mice; type: in vivo, mouse; details: 100 mg/kg

Row | Structure (SMILES) | Nature (Nature (basicity)) | anti-depressant activity (Anti-depressant activity) | Solubility: insoluble in (Solubility) | Solubility: soluble in (Solubility) | Acute toxicity: mortalities (mice)
1 | Nc1ncnc2c1ncn2C1C(O)C2OC2(CO)C1O (stereo not drawn) [neplanocin B] | weakly basic | has an anti-depressant activity | Insoluble: ethyl acetate, chloroform, benzene and diethyl ether | Soluble: water and dimethyl sulphoxide | No mortalities were observed
2 | Nc1ncnc2c1ncn2C1C(O)C=C(CO)C1O (stereo not drawn) [neplanocin F] | weakly basic | – | Insoluble: ethyl acetate, chloroform, benzene and diethyl ether | Soluble: water, dimethyl sulphoxide and acetic acid | No mortalities were observed
